Laboratory results: patent US20130296344A1, “CHROMENE DERIVATIVES AND THEIR ANALOGA AS WNT PATHWAY ANTAGONISTS” (Ruprecht-Karls-Universitat Heidelberg, priority 2010, published 2013)
Like-named read-outs stand apart in the source and are kept apart here.

Tests used:
[1] = system: HCT116 colon carcinoma cells; assay: Antiproliferative activity against HCT116 colon carcinoma cells (nuclei count); type: cell-based, human; conditions: Homo sapiens, HCT-116; colon carcinoma cells, 5 nM-90 microM, nuclei count; read-out: HCT116 IC50
Description: (§1) For examination of cell line-specific cytotoxicity, compounds were applied to human colorectal cancer cells (HCT116, denoted (1); SW480, denoted (2); Dld-1, denoted (3)) and human fibroblasts (HS-68, denoted (4)), cultured in Mc Coy's ((1)) and Dulbecco's Modified Eagles Medium ((2)-(4)), supplemented with 10% ((1)-(3)) and 20% ((4)) fetal calf serum and 1% penicillin/streptomycin. Cells were grown in T75 flasks at 37° C., 5% CO2 and trypsinized when 60-80% confluent by adding 2 ml of 0.25% Trypsin-EDTA (ethylenediaminetetraacetic acid) solution. Cells were then re-suspended into culture medium yielding approx. 750 cells, suspended in 45 microl medium, were plated into each well of a black 384-well plate for fluorescence imaging experiments. 24-36 hr later 5 microl compound solution (100 microM compound dissolved in ultra pure water containing 1% DMSO (dimethylsulfoxide)), were added to achieve a final concentration of 10 microM and were incubated for at least 72 hr. Compound incubation was terminated by (a) fixation and (b) permeabilisation of cells, followed by (c) fluorescence labeling of cell nuclei for cytometric quantification or by immunocytochemistry for microscopic evaluation of cell morphology. […] Solutions were incubated for 15 (a,b) and 30 min (c) in the dark at room temperature. Cells were washed twice between each step with 30 microl PBS. The assay system was miniaturized and adapted to automated workflow using liquid-handling robotics.
(§2) Cell line-specific cytotoxicity was quantified by counting the number of Hoechst labeled nuclei per well of a 384-well plate using a plate cytometer. Data obtained with the cytometer was analysed using standard data analysis software.
(§3) The examination of the antiproliferative activity against human colon carcinoma cells Dld1, HCT116 and SW480 was carried out in analogy to the procedure carried out for HS68. The respective compound applied in increasing concentrations yielding final concentrations per well of 5 nM-90 microM.

[2] = Cytotoxicity in HepG2 (CellTiterGlo); type: cell-based; conditions: human, HepG2 cells, 24 h after compound addition, 5 nM-100 microM, read-out: HepG2 IC50 (cytotoxic activity)
Description: (§4) For examination of cytotoxicity in these cancer cell lines the commercial available CellTiterGlo® Reagent (Promega, USA) was used according to the manufactor. Compounds were applied to Hek293T (denoted (a)) or HepG2 (denoted (b)), cultured in Dulbecco's Modified Eagles Medium, supplemented with 10% fetal calf serum and 1% penicillin/streptomycin. Cells were grown in T75 flasks at 37° C., 5% CO2 and trypsinized when 60-80% confluent by adding 2 ml of 0.25% Trypsin-EDTA solution. Cells were then re-suspended into culture medium yielding approx. 4000 cells (a) or 4500 cells (b), suspended in 30 microl medium. 48 h after cell seeding, compounds were added to yield the desired final concentrations. 24 h after compound addition cytotoxicity was evaluated. For this purpose the media was removed and CellTiterGlo® was added according to the manufactors manual. In this assay the luciferase emission readout is directly correlated with the cellular amount of ATP, low luciferase emission thus is reflecting cytotoxicity of a compound.

Wnt pathway (Wnt1/Frzd8) = assay: Wnt signaling pathway reporter gene assay (6xTCF-luciferase, Wnt1/Frizzled 8/LRP6 stimulated Hek293T cells); type: cell-based, mouse (Wnt1, human (LRP6); conditions: Homo sapiens, HEK-293T, Hek293T, 6xTCF-luciferase reporter, 24 h incubation, 5 nM-100 microM, read-out: Wnt1/Frzd8 IC50 (Wnt pathway inhibitory activity)
Source text: To screen for small-molecule modulators of the Wnt signaling pathway, a reporter gene based assay describing the modulation of the TCF4 transcription factor was used. […]

[3] = Cytotoxicity in Hek293T (CellTiterGlo); type: cell-based; conditions: human, Hek293T cells, 24 h after compound addition, 5 nM-100 microM, read-out: Hek293T IC50 (cytotoxic activity)
Description: as §4

[4] = system: Dld1 colon carcinoma cells; assay: Antiproliferative activity against Dld1 colon carcinoma cells (nuclei count); type: cell-based, human; conditions: Homo sapiens, DLD-1; colon carcinoma cells, 5 nM-90 microM, nuclei count; read-out: Dld1 IC50
Description: as §1, §2, §3

[5] = system: SW480 colon carcinoma cells; assay: Antiproliferative activity against SW480 colon carcinoma cells (nuclei count); type: cell-based; conditions: Homo sapiens, 5 nM-90 microM
Description: as §1, §2, §3

[6] = system: human fibroblasts (HS-68); assay: Cell line specific cytotoxicity, normal cells HS68 (nuclei count); type: cell-based; conditions: at least 72 hr incubation, Hoechst nuclei count, read-out: HS68 IC50 (influence on normal cells)
Description: as §1, §2
Identified hits were further evaluated by visual inspection of fluorescence micrographs obtained from imaging using a conventional fluorescence microscope.

Row | IC50 (Wnt pathway (Wnt1/Frzd8); 24 h) | SMILES | IC50 [1] | IC50 at 24 h [2] | IC50 (Wnt pathway (Wnt1/Frzd8)) | IC50 at 24 h [3] | IC50 [4] | IC50 [5] | IC50 [6]
1 | – | COc1cc(C2C(C#N)=C(N)Oc3c2c(O)nc2ccccc32)cc(Br)c1OC (centres unmarked) [(17), 2-Amino-4-(3-bromo-4,5-dimethoxy-phenyl)-5-hydroxy-4H-pyrano[3,2-c]quinoline-3-carbonitrile] | 0.305 µM | > 90 µM | 0.02 µM | > 90 µM | 0.643 µM | 0.577 µM | –
2 | – | COc1cc(C2C(C#N)=C(N)Oc3c2ccc2ncccc32)cc(Br)c1OC (centres unmarked) [(18), 6-Amino-8-(3-bromo-4,5-dimethoxy-phenyl)-8H-5-oxa-1-aza-phenanthrene-7-carbonitrile] | 0.331 µM | > 90 µM | 0.033 µM | > 90 µM | 0.185 µM | 19.7 µM | 2.77 µM
3 | – | COc1cc(C2C(C#N)=C(N)Oc3c2ccc2ccc(O)nc32)cc(Br)c1OC (centres unmarked) [(19), 3-Amino-1-(3-bromo-4,5-dimethoxy-phenyl)-6-hydroxy-1H-4-oxa-5-aza-phenanthrene-2-carbonitrile] | 0.017 µM | > 90 µM | 0.003 µM | > 90 µM | 0.021 µM | – | –
4 | – | N#CC1=C(N)Oc2cc3ccccc3cc2C1c1cc(F)c(F)c(F)c1 (centres unmarked) [(28), 2-amino-4-(3,4,5-trifluoro-phenyl)-4H-benzo[g]chromene-3-carbonitrile] | 30.3 µM | 31.7 µM | 2.4 µM | > 90 µM | 22 µM | 53.6 µM | > 90 µM
5 | – | N#CC1=C(N)Oc2cc3ccccc3cc2C1c1cc(F)c(N2CCCCC2)c(F)c1 (centres unmarked) [(29), 2-amino-4-(3,5-difluoro-4-piperidin-1-yl-phenyl)-4H-benzo[g]chromene-3-carbonitrile] | > 90 µM | 42.5 µM | 6.48 µM | > 90 µM | > 90 µM | 38.5 µM | > 90 µM
6 | – | COc1cc(C2C(C#N)=C(N)Oc3cc4ccccc4cc32)cc(Br)c1OC (centres unmarked) [(30), 2-Amino-4-(3-bromo-4,5-dimethoxy-phenyl)-4H-benzo[g]chromene-3-carbonitrile] | 2.9 µM | > 90 µM | 0.697 µM | > 90 µM | 8.97 µM | 7.6 µM | 5.15 µM
7 | 1.97 µM | COc1cc(C2C(C#N)=C(N(C)C)Oc3cc4ccccc4cc32)cc(Br)c1OC (centres unmarked) [(31), 2-Dimethylamino-4-(3-bromo-4,5-dimethoxy-phenyl)-4H-benzo[g]chromene-3-carbonitrile] | 10 µM | > 90 µM | – | > 90 µM | 4.56 µM | 12 µM | > 90 µM
8 | – | N#CC1=C(N)Oc2cc3c(cc2C1c1cc(F)c(F)c(F)c1)OCO3 (centres unmarked) [(39), 6-Amino-8-(3,4,5-trifluoro-phenyl)-8H-[1,3]dioxolo[4,5-g]chromene-7-carbonitrile] | 0.666 µM | > 90 µM | 1.36 µM | > 90 µM | 1.08 µM | 2.69 µM | –
9 | 3.42 µM | CCOC(=O)C1=C(N)Oc2cc3c(cc2C1c1cc(F)c(F)c(F)c1)OCO3 (centres unmarked) [(40), 6-Amino-8-(3,4,5-trifluoro-phenyl)-8H-[1,3]dioxolo[4,5-g]chromene-7-carboxylic acid ethyl ester] | > 90 µM | > 90 µM | – | > 90 µM | 15.7 µM | 6.38 µM | > 90 µM
